Source: patent US7553972B2, “Benzamide inhibitors of the P2X7 receptor” (Pfizer, Inc., priority 2003, dated 2009)

target: T1, P2X7 receptor (Homo sapiens, UniProt Q99572); assay: Inhibition of ATP-stimulated IL-1β release from LPS-activated blood monocytes (P2X7 antagonist activity, ELISA readout); format: cell-based; conditions: not given
T1 construct: endogenous in cells
T1 sequence (Q99572 1-595): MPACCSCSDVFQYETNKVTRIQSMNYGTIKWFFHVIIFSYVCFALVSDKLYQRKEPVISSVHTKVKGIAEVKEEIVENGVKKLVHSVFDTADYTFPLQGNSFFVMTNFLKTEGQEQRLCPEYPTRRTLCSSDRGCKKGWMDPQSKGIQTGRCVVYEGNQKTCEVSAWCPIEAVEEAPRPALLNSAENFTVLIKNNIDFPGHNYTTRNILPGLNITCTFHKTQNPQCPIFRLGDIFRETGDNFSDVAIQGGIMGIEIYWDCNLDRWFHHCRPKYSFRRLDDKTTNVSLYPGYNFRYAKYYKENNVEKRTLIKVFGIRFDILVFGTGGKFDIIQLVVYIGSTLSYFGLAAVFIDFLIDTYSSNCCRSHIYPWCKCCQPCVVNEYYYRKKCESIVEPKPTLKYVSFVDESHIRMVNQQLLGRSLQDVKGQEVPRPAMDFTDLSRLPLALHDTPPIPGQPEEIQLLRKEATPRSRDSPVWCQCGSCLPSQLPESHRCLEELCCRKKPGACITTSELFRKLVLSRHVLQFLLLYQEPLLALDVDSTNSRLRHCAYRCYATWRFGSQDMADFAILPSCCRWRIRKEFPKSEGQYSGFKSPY
Description: In like manner, the compounds of the invention can be tested for antagonist activity at the P2X7 receptor using the cytokine IL-1β as the readout. Blood collected from normal volunteers in the presence of heparin is fractionated using lymphocyte separation medium obtained from Organon Technica (Westchester, Pa.). […] The resulting cell pellet was suspended in 10 ml of Maintenance Medium and a cell count was performed. In an average experiment, 2×10^5 mononuclear cells are seeded into each well of 96-well plates in a total volume of 0.1 ml. Monocytes are allowed to adhere for 2 hours, after which the supernatants are discarded and the attached cells are rinsed twice and then incubated in Maintenance Medium overnight at 37° C. in a 5% CO2 environment.
(§1) The cultured monocytes can be activated with 10 ng/ml LPS (E. coli serotype 055:B5; Sigma Chemicals, St. Louis, Mo.). […] ATP then is introduced (from a 100 mM stock solution, pH 7) to achieve a final concentration of 2 mM and the plate is incubated at 37° C. for an additional 3 hours. Media were harvested and clarified by centrifugation, and their IL-1[…] content was determined by ELISA (R&D Systems; Minneapolis, Minn.).
Blood was collected from normal volunteers in the presence of heparin, and was fractionated using lymphocyte separation medium obtained from Organon Technica (Westchester, Pa.). […] The resulting cell pellet was suspended in 10 ml of Maintenance Medium and a cell count was performed. Approximately, 2×10^5 mononuclear cells were seeded into each well of 96-well plates in a total volume of 0.1 ml. Monocytes were allowed to adhere for 2 hours, after which the supernatants were discarded and the attached cells were rinsed twice and then incubated in Maintenance Medium overnight at 37° C. in a 5% CO2 environment.
as §1, with “monocytes were” for “monocytes can be”, “then was” for “then is”, “plate was” for “plate is”, “their IL-1β” for “their IL-1[…]”

Row | SMILES | IC50 [nM]
1 | Cc1nc(-c2ccc(Cl)c(C(=O)NCC3(O)CCCCCC3)c2)cs1 [Example 59, 2-Chloro-N-(1-hydroxy-cycloheptylmethyl)-5-(2-methyl-thiazol-4-yl)-benzamide] | 280

same assay, conditions: monocytes from normal volunteers, 10 ng/ml LPS 2 h, compound 30 min, 2 mM ATP 3 h, IL-1β by ELISA, triplicate wells; read-out: IC50 (inhibit 50% of the stimulation of the release of IL-1β from monocytes by ATP)

Row | IC50 [nM] | SMILES
2 | > 1000 | O=C(NCC1(O)CCCCCC1)c1cc(-c2cn(CC(O)CF)cn2)ccc1Cl (stereo not shown) [Example 57, 2-Chloro-5-[1-(3-fluoro-2-hydroxy-propyl)-1H-imidazol-4-yl]-N-(1-hydroxy-cycloheptylmethyl)-benzamide]
3 | 11 | Cc1cc(-c2ccc(Cl)c(C(=O)NCC3(O)CCCCCC3)c2)nn1CCN [Example 33, 5-[1-(2-Amino-ethyl)-5-methyl-1H-pyrazol-3-yl]-2-chloro-N-(1-hydroxy-cycloheptylmethyl)-benzamide]
4 | 23 | CCc1cc(-c2ccc(Cl)c(C(=O)NCC3(O)CCCCCC3)c2)[nH]n1 [Example 15, 2-Chloro-5-(5-ethyl-2H-pyrazol-3-yl)-N-(1-hydroxy-cycloheptylmethyl)-benzamide]
5 | 430 | O=C(NCC1(O)CCCCCC1)c1cc(-c2cc(CCO)on2)ccc1Cl [Example 58, 2-Chloro-N-(1-hydroxy-cycloheptylmethyl)-5-[5-(2-hydroxy-ethyl)-isoxazol-3-yl]-benzamide]
6 | 18 | Cc1ccc(C2(CNC(=O)c3cc(-c4cc[nH]n4)ccc3Cl)CCCCC2)cc1 [Example 17, 2-Chloro-5-(1H-pyrazol-3-yl)-N-(1-p-tolyl-cyclohexylmethyl)-benzamide]
7 | 545 | O=C(NCCc1ccccc1Cl)c1cc(-c2cc[nH]n2)ccc1Cl [Example 18, 2-Chloro-N-[2-(2-chloro-phenyl)-ethyl]-5-(1H-pyrazol-3-yl)-benzamide]
8 | 8 | Cc1cc(-c2ccc(Cl)c(C(=O)NCC3(O)CCCCCC3)c2)nn1CC(=O)Nc1ncccn1 [Example 52, 2-Chloro-N-(1-hydroxy-cycloheptylmethyl)-5-[5-methyl-1-(pyrimidin-2-ylcarbamoylmethyl)-1H-pyrazol-3-yl]-benzamide]
9 | 81 | Cc1cc(-c2ccc(Cl)c(C(=O)NCC3(O)CCCC(C)(C)C3)c2)on1 (stereo not shown) [Example 14, 2-Chloro-N-(1-hydroxy-3,3-dimethyl-cyclohexylmethyl)-5-(3-methyl-isoxazol-5-yl)-benzamide]
10 | 15.5 | Cc1cc(-c2ccc(Cl)c(C(=O)NCC3(O)CCCCCC3)c2)nn1CC(=O)N1C[C@H](O)[C@@H](O)C1 [Example 53, 2-Chloro-5-{1-[2-(3,4-dihydroxy-pyrrolidin-1-yl)-2-oxo-ethyl]-5-methyl-1H-pyrazol-3-yl}-N-(1-hydroxy-cycloheptylmethyl)-benzamide]
11 | 365 | Cc1cc(-c2ccc(Cl)c(C(=O)NCC3(O)CCCCCC3)c2)n(C[C@@H](O)CN)n1 [Example 55, 5-[2-(3-Amino-2-hydroxy-propyl)-5-methyl-2H-pyrazol-3-yl]-2-chloro-N-(1-hydroxy-cycloheptylmethyl)-benzamide]
12 | 5 | CNC(=O)CNC(=O)Cn1nc(-c2ccc(Cl)c(C(=O)NCC3(O)CCCCCC3)c2)cc1C [Example 49, 2-Chloro-N-(1-hydroxy-cycloheptylmethyl)-5-{5-methyl-1-[(methylcarbamoylmethyl-carbamoyl)-methyl]-1H-pyrazol-3-yl}-benzamide]
13 | 3.5 | Cc1cc(-c2ccc(Cl)c(C(=O)NCC3(O)CCCCCC3)c2)nn1CC(=O)NCCN(C)C [Example 47, 2-Chloro-5-{1-[(2-dimethylamino-ethylcarbamoyl)-methyl]-5-methyl-1H-pyrazol-3-yl}-N-(1-hydroxy-cycloheptylmethyl)-benzamide]
14 | 480 | O=C(NCC1(O)CCCCCC1)c1cc(-c2cn[nH]n2)ccc1Cl [Example 56, 2-Chloro-N-(1-hydroxy-cycloheptylmethyl)-5-(2H-[1,2,3]triazol-4-yl)-benzamide]
15 | 5 | Cc1cc(-c2ccc(Cl)c(C(=O)NCC3(O)CCCCCC3)c2)nn1CC(=O)NC[C@H](C)O [Example 51, 2-Chloro-N-(1-hydroxy-cycloheptylmethyl)-5-{1-[(2-hydroxy-propylcarbamoyl)-methyl]-5-methyl-1H-pyrazol-3-yl}-benzamide]
16 | 38 | NCCn1ccc(-c2ccc(Cl)c(C(=O)NCC3(O)CCCCCC3)c2)n1 [Example 32, 5-[1-(2-Amino-ethyl)-1H-pyrazol-3-yl]-2-chloro-N-(1-hydroxy-cycloheptylmethyl)-benzamide]
17 | 5 | Cc1cc(-c2ccc(Cl)c(C(=O)NCC3(O)CCCCCC3)c2)nn1CC(=O)NC(CO)CO [Example 50, 2-Chloro-N-(1-hydroxy-cycloheptylmethyl)-5-{1-[(2-hydroxy-1-hydroxymethyl-ethylcarbamoyl)-methyl]-5-methyl-1H-pyrazol-3-yl}-benzamide]
18 | 30 | CC(C)(O)Cn1ccc(-c2ccc(Cl)c(C(=O)NCC3(O)CCCCCC3)c2)n1 [Example 41, 2-Chloro-N-(1-hydroxy-cycloheptylmethyl)-5-[1-(2-hydroxy-2-methyl-propyl)-1H-pyrazol-3-yl]-benzamide]
19 | 11 | Cc1ccc(-c2ccc(Cl)c(C(=O)NCC3(O)CCCC(C)(C)C3)c2)nc1 (stereo not shown) [Example 2, 2-Chloro-N-(1-hydroxy-3,3-dimethyl-cyclohexylmethyl)-5-(5-methyl-pyridin-2-yl)-benzamide]
20 | 70 | Cc1cc(-c2ccc(Cl)c(C(=O)NCC3(O)CCCCCC3)c2)n(CCO)n1 [Example 31, 2-Chloro-N-(1-hydroxy-cycloheptylmethyl)-5-[2-(2-hydroxy-ethyl)-5-methyl-2H-pyrazol-3-yl]-benzamide]
21 | 22 | Cc1cc(-c2ccc(Cl)c(C(=O)NCC3(O)CCCCCC3)c2)nn1CC(=O)N1CCCC1 [Example 46, 2-Chloro-N-(1-hydroxy-cycloheptylmethyl)-5-[5-methyl-1-(2-oxo-2-pyrrolidin-1-yl-ethyl)-1H-pyrazol-3-yl]-benzamide]
22 | 8 | Cc1cc(-c2ccc(Cl)c(C(=O)NCC3(O)CCCCCC3)c2)nn1C[C@@H](O)CO [Example 40, 2-Chloro-5-[1-(2,3-dihydroxy-propyl)-5-methyl-1H-pyrazol-3-yl]-N-(1-hydroxy-cycloheptylmethyl)-benzamide]
